Data on 3 compounds can be found in patent publication US5614548A, “Quaternary amine containing ether or ester lipid derivatives and therapeutic compositions” (priority 1994, dated 1997).

Several values for one entry are separate records, joined by “and”; a condition that tells them apart may be missing. Identical values can stand only once. Like-named read-outs stand apart in the source and are kept apart here.

One data set has as its system KB cells. The data set can be described thus: Cytostatic activity on KB cells. In kind it is cell-based. The following applies: Homo sapiens; KB cells, after controls doubled three times; read-out: IC50 KB. The procedure: (§1) All cells were grown in Eagle's minimum essential medium supplemented with 10% fetal bovine serum with the exception of HL-60 and K562-4 cells which were grown in RPMI 1640 medium supplemented with 10% fetal bovine serum. The KB and MH1 C1 cells, from a human nasopharyngeal carcinoma and rat hepatoma, respectively, were from American Type Culture Collection. The ChaGo cells, a human lung carcinoma, was generously provided by Dr. A. H. Tashjian. The human promyeloblastic leukemia cells, K562-4 were kindly supplied by Dr. Bismarck Lozzio. HL-60 cells, a human promyelocytic leukemia, and P388 cells, a mouse leukemia, were obtained from Dr. Y.-C. Cheng. The 77 cells were put into culture by us by excising the 7777, Morris hepatoma from a rat graciously supplied by the late Dr. H. P. Morris.
(§2) Cells were transferred or removed from monolayers for counting after a one or two minute incubation with 0.02% sodium ethylenediamine tetraacetate in phosphate-buffered saline to dislodge the cells. Flasks were seeded at a density of 1×10^3 cells per cm^2 or 2×10^4 per milliliter for suspension cultures. The HL-60 and K562-4 suspension cultures were used about 24 hours after seeding. The compounds to be tested were diluted to various concentrations and added to the monolayer cultures. All of the test compounds were dissolved in 10% dimethyl sulfoxide (DMSO) at concentrations that would give a final DMSO concentration of 0.1%. Control flasks contained 0.1% DMSO. Control cell replication was followed until approximately three doublings had occurred, and then all of the treated cells were counted.
(§3) The KB cells represented cells with low alkyl cleavage activity (less than the detectable level of 0.1-0.2 units per milligram protein by our assay procedure) and the 77 cells represented cells similar to normal cells with relatively high alkyl cleavage activity (1.6 units per milligram of protein). Our value for the cleavage activity of cultured 77 cells agrees well with the value of 1.4 units per milligram of protein reported by Soodsma et al, Cancer Res. 30, 309 (1970), for freshly excised 7777 Morris hepatoma tissue. In further confirmation of our assay procedure, we obtained a value of 12.6±4.1 units per milligram of protein in excised rat liver compared to 7.3 units per milligram of protein in rat liver measured by Soodsma et al.

A further data set concerns 77 cells. Description: Cytostatic activity on 77 cells. The following applies: for IC50: 77 cells, after controls doubled three times; for 77/KB: ratio of IC50 values ± standard error of the quotient. In kind it is cell-based, rat. The procedure: as §1, §2, §3
The next data set relates to ChaGo cells. Description: Cytostatic activity on ChaGo cells. In kind it is cell-based, human. Conditions: Homo sapiens. The procedure:
as §1, §2

In the next data set the test system is K562-4 cells. Description: Cytostatic activity on K562-4 cells. The class given is cell-based. The following applies: Homo sapiens; K562-4 (printed X562-4). The procedure: as §1, §2
For data set [1], the system named is HL60 human leukemia cell line. Description: HL60 cell growth inhibition (trypan blue, 48 h). The class given is cell-based. Conditions: for IC50: HL60, 48 hours. The procedure: A number of the compounds disclosed herein have been tested against the HL60 human leukemia cell line to assess their cytotoxic potential. These analogs were investigated in parallel with ET-18-OMe which was used as the reference compound. The methodologies used in this investigation were the same as described in A. Noseda, M. Berens, C. Piantadosi, and E. J. Modest, Lipids 22, 878-883, 1987. In brief, HL60 cells at a concentration of […] were incubated in wells with one milliliter medium with the experimental drug in parallel with the same concentration of cells with ET-18-OMe (standard) or EtOH (control). After 48 hours of incubation the cells were counted using the trypan blue dye exclusion technique to determine the effect of the drug on cell growth. The experimental drug and ET-18-OMe were tested at the same concentrations, e.g., 10, 5, 2.5 and 1.25 μM.

Data set [2] has as its system HIV-1. The data set can be described thus: HIV-1 plaque assay, inhibitor added 30 minutes before infection. In kind it is cell-based, human immunodeficiency virus type 1 (HIV-1). The text has this: (§4) Dextran sulfate was used as a positive control. […] Plaques were counted at five days after infection.
(§5) By way of further background, in our assay HIV-1 syncytial plaques are seen as large, multicellular foci (10 to 25 nuclei/syncytium) that appear either brown and granular or clear. Since the number of HIV-1 syncytial plaques correlates with reverse transcriptase (RT) and p24 core antigen activity in the HIV-1 infected cell overlay fluids, the syncytial plaque assay can be used to quantify the amount of infectious virus. Reverse transcriptase activity was assayed according to a described procedure (B. J. Poeisz et al., Proc. Natl. Acad. Sci. (U.S.A.) […], 7415 (1980)). The activity of p24 core antigen induced by HIV-1 infection of CEM-SS cells was measured spectrophotometrically using the commercial Abbott EIA.
(§6) Compound E inhibited HIV-1 plaque count 43%, 83%, and 91% at concentrations of 0.2, 0.4, and 2.0 μM, respectively, compared to untreated controls. […] In other experiments addition of 0.2, 0.4 and 2.0 μM Compound E starting sixty minutes after HIV-1 infection inhibited HIV-1 plaque formation 28%, 59% and 97% respectively, compared to untreated controls.

Data set [3] relates to HIV-1. Description: HIV-1 plaque assay, inhibitor added 60 minutes after infection. The class given is cell-based, human immunodeficiency virus type 1 (HIV-1).
Text: as §4, §5, §6
(§7) Next investigated were the correlations of EL analog structure with anti-HIV-l and anti-cell growth. The experimental method used six serial two-fold dilutions of EL that spanned concentrations above and below a concentration that inhibits HIV-1 plaque count, cell growth (^3 H-TdR uptake into cell DNA) or in vitro PKC activity by 50% (inhibitory concentration50 =IC50) compared to an appropriate mock treated control. Table 7 summarizes data on IC50 of phosphorus and non-phosphorus compounds for HIV-1 plaque formation and cell growth.
^1 Serial 2fold dilutions of compounds are used. HIV1 plaque formatio
is measured in CEMSS cell monolayers by having compound present starting
sixty minutes after virus infection. IC50 values for HIV1 plaque
formation are x ± one SD., N = 4. CEMSS cell growth is measured in […]

The next data set has as its system CEM-SS cells. The data set can be described thus: CEM-SS cell growth (3H-TdR uptake). In kind it is cell-based. The following applies: Homo sapiens, 48 hours, N = 3, read-out: Inhibitory Concentration50 CEM-SS Cell Growth.
Text: as §7
formation are x ± one SD., N = 4. CEMSS cell growth is measured in
suspension cultures by treating the cells with compound for 48 hours at
37° C. and then adding 1 μCi of ^3 HTdR (S.A. = 20 Ci/mmole
for 8 hours at 37° C. to measure DNA synthesis. IC50 values
for CEMSS growth are x of a representative experiment, N = 3.

Data set [4] relates to HIV-1. Description: Infectious HIV-1 multiplication (plaque forming units). The following applies: for infectious virus production: in words; for activity at 0.2 µM / activity at 0.4 µM / activity at 2 µM: read-out: Plaque Forming Units, % of Control. In kind it is cell-based, human immunodeficiency virus type 1 (HIV-1). The procedure: (§8) In brief, CEM-SS cells were infected with HIV-1. At various times after infection (3, 6, 8, 10, 13 days) the overlay fluids were replaced with fresh medium. Overlay fluids replaced on days 8, 10 and 13 were saved at -80° C. to measure HIV-1 plaque forming units according to our described protocol above and RT activity (described by Poiesz et al., Proc. Natl. Acad. Sci. U.S.A. 77, 7415 (1980). Results are given in Table 8 below.

For a further data set, the system named is reverse transcriptase. Description: Reverse transcriptase activity in HIV-1 infected CEM-SS cells. In kind it is cell-based, human immunodeficiency virus type 1 (HIV-1). Conditions: for reverse transcriptase activity: in words; for activity at 0.2 µM / activity at 0.4 µM / activity at 2 µM: Human immunodeficiency virus 1, CEM-SS, read-out: RT Activity, % of Control. The procedure:
as §5, §8

The next data set has as its system MH1 C1 cells. Description: Cytostatic activity on MH1 C1 cells. In kind it is cell-based, rat. The procedure: as §1, §2
Setting [5] is: Human immunodeficiency virus 1, 192 h, day 8.
Setting [6] is: Human immunodeficiency virus 1, 240 h, day 10.
The mark [7] stands for this setting: Human immunodeficiency virus 1, 312 h, day 13.

As to `CCCCCCCCCCCCCCCCOCC(C[N+](C)(C)CCO)OC(C)=O.[I-]` (racemic) [XI, (±)-3-hexadecyloxy-2-acetoxy-N,N-dimethyl-N-β-hydroxyethyl-1-propyl ammonium iodide], the IC50 with KB cells amounted to 430 ± 50 nM; in the data set on 77 cells, 1350 ± 640 nM; with ChaGo cells, 1200 nM; in the data set on K562-4 cells, 3500 nM. In addition, in the data set with 77 cells, the 77/KB came out at 3.1 ± 1.51.

The term inhibition denotes the percentage by which the read-out fell short of the control. Consider `CCCCCCCCCCCCCCCCCCOCC(COP(=O)([O-])OCC[N+](C)(C)C)OC` (racemic) [ET-18-OMe, (±)-1-O-octadecyl-2-O-methylglycero-3-phosphocholine, reference compound], for which the IC50 is 1900 nM and 2300 nM and 2200 nM in data set [1] (ET-18-OMe reference run in parallel with the analog of the line, 2880 min, read-out: ID50, ET-18-OMe); 1700 nM in data set [1] (Homo sapiens, HL-60, 48 h, ET-18-OMe reference run in parallel with the analog of the line, read-out: ID50, ET-18-OMe); 2500 nM in [1] (Homo sapiens, HL-60, 48 h, read-out: ID50 (the source's name)); 1400 ± 450 nM in the data set on HIV-1 [3] (Human immunodeficiency virus 1, CEM-SS monolayers, compound from sixty minutes after infection, N = 4, read-out: Inhibitory Concentration50 HIV-1 Plaque Formation); 4.4 µM in the data set on CEM-SS cells. In addition, the “cytotoxic activity against HL60” value in data set [1] (HL60, in words) is “shows an activity that is consistent with previous reports against the cell line tested”. Moreover, the inhibition at 0.2 µM in the data set on HIV-1 [2] (Human immunodeficiency virus 1, 0.2 μM, 30 minutes before infection, Table 6) was found to be 0%; with HIV-1 [3] (Human immunodeficiency virus 1, 1 h, 0.2 μM, 60 minutes after infection), 0%. Besides, the inhibition at 0.4 µM in the data set on HIV-1 [2] (Human immunodeficiency virus 1, 0.4 μM, 30 minutes before infection, Table 6, read-out: Inhibition (%)) amounted to 9%; in the data set on HIV-1 [3] (Human immunodeficiency virus 1, 1 h, 0.4 μM, 60 minutes after infection) it was 0%. Also, the inhibition at 2 µM in the data set on HIV-1 [2] (Human immunodeficiency virus 1, 2.0 μM, 30 minutes before infection, Table 6) was found to be 45%; in the data set with HIV-1 [3] (Human immunodeficiency virus 1, 1 h) it was 64%. For the same compound, in the data set on HIV-1 [2] (added before or after infection, in words), the “antiviral activity (HIV-1 plaque formation)” value is recorded as “antiviral activity”. In addition, the anti-HIV-1 activity entry in the data set on HIV-1 [3] (HIV-1 plaque formation, in words) is given as “potent anti-HIV activity”. The infectious virus production result was “infectious virus production is still inhibited” with HIV-1 [4] (13 days); “markedly inhibit infectious virus production” in the data set with HIV-1 [4] (between 8 and 10 days). Also, the activity at 0.2 µM with HIV-1 [4] (setting [5]) amounted to 395%; in the data set on HIV-1 [4] (setting [6]) it was 287%; with HIV-1 [4] (setting [7]) it was 89%; in the data set with reverse transcriptase (192 h, day 8), 54%; in the data set on reverse transcriptase (240 h, day 10), 192%; in the data set with reverse transcriptase (312 h, day 13) it was 94%. Further, the activity at 0.4 µM was 25% in the data set with HIV-1 [4] (setting [5]); 30% with HIV-1 [4] (setting [6]); 35% with HIV-1 [4] (setting [7]); 15% in the data set with reverse transcriptase (192 h, day 8); 90% with reverse transcriptase (240 h, day 10); 161% with reverse transcriptase (312 h, day 13). Moreover, the activity at 2 µM in the data set with HIV-1 [4] (setting [5]) worked out at 0%; in the data set with HIV-1 [4] (setting [6]), 33%; in the data set on HIV-1 [4] (setting [7]), 30%; in the data set with reverse transcriptase (192 h, day 8), 6%; in the data set on reverse transcriptase (240 h, day 10), 6%; in the data set on reverse transcriptase (312 h, day 13) it was 174%. Besides, the reverse transcriptase activity entry is “reverse transcriptase activity increases” in the data set with reverse transcriptase (13 days); “markedly inhibit infectious virus production and reverse transcriptase activity in a dose-dependent manner” in the data set with reverse transcriptase (between 8 and 10 days).

As to `CCCCCCCCCCCCCCCCCCOCCC[N+](C)(C)CCO.[I-]` [XIII, 3-octadecyloxy-N,N-dimethyl-N-β-hydroxyethyl-1-propyl ammonium iodide], the IC50 was 700 ± 80 nM in the data set on KB cells; 2500 ± 900 nM in the data set with 77 cells; 1400 nM with K562-4 cells; 2900 nM in the data set on MH1 C1 cells (Rattus norvegicus, MH1C1, MH1 C1). For the same compound, the 77/KB in the data set with 77 cells came to 4.3 ± 1.60. The “sensitivity of MH1 C1 cells relative to 77 cells” value in the data set on MH1 C1 cells (MH1 C1 vs 77 cells) is given as “two to three times less sensitive to growth inhibition than 77 cells”.
